Drawing on the Deep4Chem optical property database, this text covers emission maximum for 35 molecules.

The data set in a line: solvent given as SMILES.
[1] abbreviates: in c1cc(-n2c3ccccc3c3ccccc32)cc(-n2c3ccccc3c3ccccc32)c1.

As for `Cc1cc(C)cc(NC(=O)c2sc(Br)nc2C)c1`, the emission maximum is, setting by setting: (in C1CCOC1) 413.2 nm; (in CC#N) 399 nm; (in CCCCCC) 400.6 nm; (in CCOC(C)=O) 405.5 nm; (in CN(C)C=O) 398.2 nm; (in CO) 402 nm. Besides, the emission maximum by setting is: (in CS(C)=O) 402.5 nm; (in ClC(Cl)Cl) 411.5 nm.
With `N#Cc1cc(-n2c3ccccc3c3ccccc32)c(C#N)cc1-n1c2ccccc2c2ccccc21`, the emission maximum is given as 370 nm (in c1cc(-c2cccc(-n3c4ccccc4c4ccccc43)c2)cc(-n2c3ccccc3c3ccccc32)c1) and 370 nm (in c1ccc2c(c1)c1ccccc1n2P1(n2c3ccccc3c3ccccc32)=NP(n2c3ccccc3c3ccccc32)(n2c3ccccc3c3ccccc32)=NP(n2c3ccccc3c3ccccc32)(n2c3ccccc3c3ccccc32)=N1).
`O=Cc1ccc(C2=Cc3ccccc3P2(=O)c2ccccc2)cc1` (stereo not drawn) had an emission maximum (in ClCCl) of 427 nm.
Molecule `CC(C)Nc1cc2c(cc1F)c(=O)c1cc(F)c(NC(C)C)cc1n2C(C)C` displayed an emission maximum (in CCO) of 423 nm.
As to `Cc1nc2c(cc3c4c(cccc42)C(=O)OC3=O)o1`, under “in CCO”, the emission maximum came to 418 nm.
`O=C1c2ccccc2-c2ccc(N3CCOCC3)c3cccc1c23` returned an emission maximum (in C1CCOC1) of 600 nm; an emission maximum (in CCCCCC) of 529 nm; an emission maximum (in CCO) of 640 nm; an emission maximum (in CCOC(C)=O) of 600 nm; an emission maximum (in CN(C)C=O) of 622 nm; an emission maximum (in CO) of 661 nm. The emission maximum is, setting by setting: (in Cc1ccccc1) 568 nm; (in ClC(Cl)(Cl)Cl) 552 nm; (in ClC(Cl)Cl) 625 nm; (in ClCCl) 625 nm; (in c1ccccc1) 562 nm.
`Cc1cc2nc3c(=O)n(C)c(=O)nc-3n(C)c2cc1C`: the emission maximum (in CC#N) is listed as 531 nm.
`CC(C)(C)c1cc(-c2c3cccc4c5cccc6c(-c7cc(C(C)(C)C)cc(C(C)(C)C)c7)c7cccc8c9cccc2c9c(c34)c(c65)c78)cc(C(C)(C)C)c1`: under “in Cc1ccccc1”, the emission maximum was determined as 701 nm.
On to `CCN(CC)c1ccc2cc(-c3ccc(C(F)(F)F)cc3)oc(=O)c2c1`, for which the emission maximum reads like this: (in CC(C)=O) 454 nm; (in CCCCCC) 418 nm; (in CCCCO) 468 nm; (in CCCO) 470 nm; (in CCO) 471 nm; (in CCOC(C)=O) 443 nm. Further, the emission maximum runs as follows: (in CN(C)C=O) 462 nm; (in CO) 475 nm; (in ClC(Cl)Cl) 450 nm.
On to `COc1cccc(OC)c1-c1c2ccc(=[N+]3CCN(C(=O)OC(C)(C)C)CC3)cc-2oc2cc(N3CCN(C(=O)OC(C)(C)C)CC3)ccc12`, for which the emission maximum (in ClCCl) turned out to be 580 nm.
As to `O=S(=O)(c1cccc(N2c3ccccc3Sc3ccccc32)c1)c1cccc(N2c3ccccc3Sc3ccccc32)c1`, the emission maximum by setting is: (in C1CCOC1) 596 nm; (in CCCCC(CC)n1c2ccc(-n3c4ccccc4c4ccccc43)cc2c2cc(-n3c4ccccc4c4ccccc43)ccc21) 554.57 nm; (in Cc1ccccc1) 561 nm; (in ClC(Cl)Cl) 579 nm; under setting [1], 550.83 nm.
Regarding `CCCCCCC1(CCCCCC)c2cc(-c3ccc(-c4ccc(-c5ccc(-c6ccc7c(c6)C(CCCCCC)(CCCCCC)c6cc(-n8c9ccc(-n%10c%11ccccc%11c%11ccccc%11%10)cc9c9cc(-n%10c%11ccccc%11c%11ccccc%11%10)ccc98)ccc6-7)s5)c5nsnc45)s3)ccc2-c2ccc(-n3c4ccc(-n5c6ccccc6c6ccccc65)cc4c4cc(-n5c6ccccc6c6ccccc65)ccc43)cc21`, the emission maximum (in ClCCl) is 608 nm.
Consider `CC(C)(C)c1ccc(-c2nc3c4ccc(-c5ccccc5)cc4c4cc(-c5ccccc5)ccc4c3n2-c2ccc(C(C)(C)C)cc2)cc1`, for which the emission maximum by setting is: (in C1CCOC1) 389 nm; (in C1COCCO1) 389 nm; (in CC#N) 391 nm; (in CCCCCC) 385 nm; (in CCCCOCCCC) 386 nm; (in CCN(CC)CC) 386 nm. The same molecule had an emission maximum (in CCOC(C)=O) of 388 nm; an emission maximum (in CCOCC) of 386 nm; an emission maximum (in CN(C)C=O) of 392 nm; an emission maximum (in Cc1ccccc1) of 388 nm; an emission maximum (in ClC=C(Cl)Cl) of 389 nm; an emission maximum (in ClCCl) of 390 nm.
Consider `CCN(CC)c1ccc(/C=N/c2cc3nc4ccccc4nc3cc2/N=C/c2ccc(N(CC)CC)cc2O)c(O)c1`, for which the emission maximum stood at 551 nm (in CC#N), 599 nm (in CN(C)C=O) and 568 nm (in ClCCl).
As for `CN(C)c1ccc(/C=C/C=C2\CC/C(=C\C=C\c3ccc(N(C)C)cc3)C2=O)cc1`, the emission maximum is 500 nm (in C1CCCCC1); 717 nm (in CC#N); 694 nm (in CC(C)=O); 718 nm (in CC(C)O); 496 nm (in CCCCCC); 739 nm (in CCCCO). The emission maximum is 740 nm (in CCCO); 744 nm (in CCO); 644 nm (in CCOC(C)=O); 586 nm (in CCOCC); 715 nm (in CN(C)C=O); 735 nm (in CO). The emission maximum is, setting by setting: (in CS(C)=O) 727 nm; (in Cc1ccccc1) 553 nm; (in ClC(Cl)(Cl)Cl) 537 nm; (in ClCCl) 672 nm; (in OCC(F)(F)F) 764 nm; (in S=C=S) 568 nm. Moreover, the emission maximum by setting is: (in c1ccccc1) 567 nm; (in c1ccncc1) 681 nm.
In turn, `Cc1cc(C)c(C2=C3C=CC=[N+]3[B-]3(c4ccc5ccc6cccc7ccc4c5c67)Oc4cc(O)cc5c6ccc(C)cc6c6cc2n3c6c45)c(C)c1` (stereo not drawn) showed an emission maximum (in ClC(Cl)Cl) of 670 nm.
For `CC(=O)c1ccc(/C=C/C=C/C2=NC3C(=O)NC(N)=NC3N2[C@H]2C[C@H](O)[C@@H](CO)O2)cc1` (stereo partly drawn), the emission maximum (in C1COCCO1) is 494 nm, the emission maximum (in CC#N) is 547 nm and the emission maximum (in CO) turned out to be 554 nm.
On to `CN(C)c1c2ccccc2cc2ccccc12`, for which the emission maximum runs as follows: (in C1CCCCC1) 391 nm; (in C1CCOC1) 392 nm; (in C1COCCO1) 392 nm; (in CC#N) 390 nm; (in CCO) 389 nm; (in CN(C)C=O) 392 nm. In addition, the emission maximum by setting is: (in CO) 389 nm; (in COCCOC) 392 nm; (in CS(C)=O) 395 nm; (in O) 390 nm; (in OCC(O)CO) 393 nm; (in OCCO) 392 nm.
Regarding `CCCCCCn1c2ccsc2c2sc3c(sc4c5sccc5n(CCCCCC)c43)c21`, the emission maximum (in ClCCl) is 411 nm.
Regarding `O=C(O)C1=C(C(=O)O)C2=C[C@H]3c4ccccc4[C@]2(S1)c1ccccc13`, the emission maximum (in ClCCl) is 503 nm.
Regarding `N#Cc1nc(-n2c3ccccc3c3ccccc32)cc(-n2c3ccccc3c3ccccc32)n1`, the emission maximum (in Cc1ccccc1) stood at 518 nm.
The molecule `Cc1cccc(C2=Cc3c4ccccc4cc[n+]3[B-](F)(F)O2)c1` had an emission maximum (in ClC(Cl)Cl) of 464.8 nm.
For the molecule `COc1ccc(N(c2ccc(OC)cc2)c2cc(N(c3ccc(OC)cc3)c3ccc(OC)cc3)c3ccc4cc(C(C)(C)C)cc5ccc2c3c54)cc1`, for the setting “in ClCCl”, the emission maximum was 525 nm.
For the molecule `CC(C)(C)c1ccc2c(c1)c1cc(C(C)(C)C)ccc1n2-c1ccc(-n2c3ccc(C(C)(C)C)cc3c3cc(C(C)(C)C)ccc32)c(-c2nccnc2C#N)c1`, the emission maximum runs as follows: (in Cc1ccccc1) 503 nm; under setting [1], 493 nm.
In turn, `COc1ccc(C2=C(c3ccc(OC)cc3)C(C)(C)c3ccccc32)cc1` had an emission maximum (in C1CCCCC1) of 391 nm.
Take `C(=C\c1ccncn1)/c1ccc(N2CCCCC2)cc1`: the emission maximum was 486 nm (in C1CCOC1); 514 nm (in CC#N); 435 nm (in CCCCCCC); 521 nm (in CS(C)=O); 498 nm (in ClCCl).
As to `CN(C)/C=N\c1ccc2c3c(cccc13)C(=O)c1ccccc1-2`, the emission maximum by setting is: (in C1CCOC1) 586 nm; (in CCCCCC) 528 nm; (in CCO) 634 nm; (in CCOC(C)=O) 586 nm; (in CN(C)C=O) 624 nm; (in CO) 638 nm. The emission maximum came to 551 nm (in Cc1ccccc1); 540 nm (in ClC(Cl)(Cl)Cl); 575 nm (in ClC(Cl)Cl); 593 nm (in ClCCl); 550 nm (in c1ccccc1).
On to `COC(=O)c1[nH]c(-c2ccccc2)c2nnc3ccsc3c12`, for which the emission maximum (in ClCCl) was determined as 478 nm.
Turning to `CCCCN(CCCC)c1ccc(/C=C/c2ccc3nc(/C=C/c4ccc(N(C)C)cc4)c(-c4ccccc4)nc3c2)cc1`, the emission maximum reads like this: (in C1COCCO1) 549 nm; (in CC#N) 661 nm; (in ClCCl) 615 nm.
In the case of `c1ccc([B-]2(c3ccccc3)Oc3ccc4ccccc4c3-c3c4ccccc4cn[n+]32)cc1`, the emission maximum (in Cc1ccccc1) is on record as 555 nm.
As to `CC1(C)C(/C=C/C=C/c2cc3ccc(O)cc3oc2=O)=[N+](CCCS(=O)(=O)[O-])c2ccccc21`, the emission maximum was 653 nm (in CS(C)=O) and 720 nm (in O).
For the setting “in ClCCl”, `C(#Cc1c(C#Cc2ccccc2)c(C#Cc2ccccc2)c(C#Cc2ccccc2)c(C#Cc2ccccc2)c1C#Cc1ccccc1)c1ccccc1` came in with an emission maximum of 452 nm.
`O=c1oc2ccccc2cc1-c1cccc(-c2cc3ccccc3oc2=O)c1` had an emission maximum (in ClC(Cl)Cl) of 419 nm.
Molecule `Cc1ccc2c3ccc(C)cc3c3cc4c(C)cc(=O)oc4cc3c2c1` gave an emission maximum (in ClC(Cl)Cl) of 422 nm.
As for `CN(C)c1ccc(N2c3sc4ccccc4c3Sc3sc4ccccc4c32)cc1`, where the note is “in ClCCl”, the emission maximum is given as 424 nm.
